Test results taken from ChEMBL document CHEMBL1201862, “PubChem BioAssay data set” (2004).
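96-well plates; 48 h exposure; 5 concentrations. Endpoints by linear interpolation between flanking doses. Not reached: highest tested concentration assigned. GI50 = concentration required for 50% inhibition of growth.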 The source made the active and inactive calls. Rule as the data show it: active = GI50 up to about 1.1 µM and inactive = higher.

Assays:
Assay in all cases: DTP human tumour cell line panel, 48 h
[1] = system: A498
[2] = system: A549
[3] = system: BT-549
[4] = system: EKVX
[5] = system: HOP-92
[6] = system: HT-29
[7] = system: Hs-578T
[8] = system: K562
[9] = system: M14
[10] = system: MCF7
[11] = system: MDA-N
[12] = system: NCI-H226
[13] = system: NCI-H522
[14] = system: OVCAR-5
[15] = system: SK-MEL-5
[16] = system: SN12C
[17] = system: SR
[18] = system: SW-620
[19] = system: T47D
[20] = system: U-251

Measured: GI50

Cn1c(=O)c2nc(COCc3nc4c(=O)n(C)c(=O)n(C)c4[nH]3)[nH]c2n(C)c1=O
inactive: [1] > 100 µM | [2] > 100 µM | [3] > 100 µM | [4] > 100 µM | [5] > 100 µM | [6] > 100 µM | [7] > 100 µM | [8] > 100 µM | [9] > 100 µM | [10] > 100 µM | [11] > 100 µM | [12] > 100 µM | [13] > 100 µM | [14] > 100 µM | [15] > 100 µM | [16] > 100 µM | [17] > 100 µM | [18] > 100 µM | [19] > 100 µM | [20] > 100 µM

O=c1c2cc(I)ccc2nc(S)n1Cc1ccccc1
inactive: [1] 18.8 µM | [2] 15.9 µM | [3] 19.2 µM | [4] 5.52 µM | [5] 8.75 µM | [6] 32.9 µM | [7] 16 µM | [8] 35.6 µM | [9] 9.25 µM | [10] 28.1 µM | [11] 9.2 µM | [12] 15.5 µM | [13] 3.96 µM | [14] 43.1 µM | [15] 6.17 µM | [16] 10.6 µM | [17] 30.7 µM | [18] 59 µM | [19] > 100 µM | [20] 18.4 µM

CCn1c(=O)c2c3ccc(O)cc3[nH]c2c2ccc(O)cc21
inactive: [1] > 100 µM | [2] > 100 µM | [3] > 100 µM | [4] > 100 µM | [5] > 100 µM | [6] > 100 µM | [7] 44.1 µM | [8] 83.6 µM | [9] > 100 µM | [10] 50.7 µM | [11] 66.4 µM | [12] > 100 µM | [13] 93.3 µM | [14] > 100 µM | [15] 30.9 µM | [16] 81.5 µM | [17] 55.6 µM | [18] > 100 µM | [19] 51.2 µM | [20] 56.8 µM

O=C(O)C1(Cc2ccc3c(c2)CCC3)Cc2ccccc2C1
inactive: [1] 36.1 µM | [2] 43 µM | [3] 29.8 µM | [4] 54.2 µM | [5] 29 µM | [6] 88.3 µM | [7] 73.1 µM | [8] 56.8 µM | [9] > 100 µM | [10] > 100 µM | [11] > 100 µM | [12] 91 µM | [13] 42.3 µM | [14] > 100 µM | [15] > 100 µM | [16] > 100 µM | [17] > 100 µM | [18] > 100 µM | [19] 49.2 µM | [20] 65.8 µM

C/C1=C\CC/C(C)=C/C=C(/C(C)C)CC/C(C(=O)O)=C/CC1 [CROTOCEMBRANEIC ACID]
inactive: [1] 21 µM | [2] 34.3 µM | [3] 61.5 µM | [4] 39 µM | [5] 92.3 µM | [6] 46.7 µM | [7] 72.1 µM | [8] 33.9 µM | [9] 45 µM | [10] 34.2 µM | [11] 59 µM | [12] 33 µM | [13] 38.1 µM | [14] > 100 µM | [15] 36 µM | [16] 45.3 µM | [17] 22 µM | [18] 42.3 µM | [19] 23.2 µM | [20] 35.1 µM
